Patent US20260176636A1, “APTAMER-DIRECT INHIBITOR CONJUGATES AND METHODS OF USING THE SAME” (Duke University, priority 2022, published 2026)
“Also recorded” adds a separate entry of the source.

Key:
human factor Xa = molecular target: T1, human factor Xa (Homo sapiens, UniProt P00742); experiment: Fluorogenic activity assay (fluorescent peptidyl substrate cleavage), factor Xa; format: biochemical; settings: for IC50: factor Xa 0.5 nM, fluorogenic substrate 50 μM; for factor Xa inhibition, result in words: fluorogenic substrate assay; for antidote reversal of factor Xa inhibition by 11F7t-20A-DAB, result in words: antidote oligonucleotide
T1 construct: Human alpha thrombin, human factor Xa, and human fibrinogen were purchased from Haematologic Technologies Inc; purchased Haematologic Technologies Inc
T1 sequence (P00742 235-488 limits assumed): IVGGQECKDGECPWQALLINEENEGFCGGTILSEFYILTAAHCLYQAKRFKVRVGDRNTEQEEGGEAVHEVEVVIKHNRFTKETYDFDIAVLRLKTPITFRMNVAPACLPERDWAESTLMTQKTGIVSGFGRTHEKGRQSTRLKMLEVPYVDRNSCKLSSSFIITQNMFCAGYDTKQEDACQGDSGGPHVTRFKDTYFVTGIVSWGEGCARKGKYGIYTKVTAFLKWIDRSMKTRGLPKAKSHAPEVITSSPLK
T1 sequence (P00742 41-179 limits assumed): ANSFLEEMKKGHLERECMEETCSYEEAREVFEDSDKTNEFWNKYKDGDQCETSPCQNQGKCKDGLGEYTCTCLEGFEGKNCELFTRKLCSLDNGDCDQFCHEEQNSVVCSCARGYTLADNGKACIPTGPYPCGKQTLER
Method: (§2) Fluorogenic activity assay: All reagents were freshly reconstituted in the reaction buffer (20 mM HEPES, 150 mM NaCl, and 2 mM CaCl2), 0.02%, Tween 20, pH 7.5) before the assay. 10 μL of thrombin or factor Xa (final concentration 0.5 nM) were first incubated with 5 μL of inhibitor, inhibitor/antidote mixture, or buffer control on a 384-well opaque plate for 5 min at 28° C. 10 μL of fluorogenic substrate (final concentration 50 μM) was then added to the mixture and the time-course fluorescence (λex=352 nm, λem=470 nm) of the sample were recorded every minute for 15 min at 28° C. using a SpectraMax i3 microplate reader (Molecular Devices). The catalytic rate of the protease was quantified by the slope from linear regression of the time-dependent fluorescence intensity and normalized with the sample containing no inhibitor as 100%. Each experiment was performed in triplicates.

normal human plasma [1] = experiment: Activated partial thromboplastin time (aPTT) plasma coagulation assay
Method: (§1) Plasma coagulation assays: Thrombin time (TT), prothrombin time (PT), and activated partial thromboplastin time (aPTT) assays were performed in citrated normal human plasma on a hemostasis coagulation analyzer (Diagnostica Stago). For TT, 5 μL of inhibitors in the reaction buffer were mixed with 100 μL of plasma and incubated at 37° C. for 5 min. 50 μL of thrombin (6 NIH units/ml) in the reaction buffer was then added to initiate clotting. For PT, 5 μl of inhibitors in the reaction buffer were mixed with 50 μL of plasma and incubated at 37° C. for 5 min. 100 μL of TriniCLOT PT Excel S reagent was then added to initiate clotting. For aPTT, 5 μL of inhibitors in the reaction buffer were mixed with 50 μL of plasma and incubated at 37° C. for 5 min, 50 μL of TriniCLOT aPTT S reagents was then added followed by another 5 min incubation at 37° C. Finally, 50 μL of 20 mM CaCl2) was added to initiate clotting. To characterize antidote reversal of HD22-7A-DAB in the above assays, 5 μL AO2 (finial concentration 2 μM) in the reaction buffer was added after 5-min incubation between plasma and HD22-7A-DAB, followed by another 5 min of incubation before the next step. All assays are performed induplicates.

Human alpha thrombin = Human alpha thrombin (Homo sapiens, UniProt P00734); experiment: Fluorogenic activity assay (fluorescent peptidyl substrate cleavage), thrombin; settings: for thrombin inhibition, result in words / antidote reversal of thrombin inhibition, result in words: fluorogenic substrate assay; for antidote reversal of thrombin inhibition, result in words: antidote oligonucleotide
Method: Initial velocity studies of fluorescent peptidyl substrate cleavage by thrombin were used to assess protease inhibition by the EXACT inhibitor (FIG. 1c).
as §2

factor Xa = settings: cited from earlier work
normal human plasma [2] = experiment: Thrombin time (TT) plasma coagulation assay; settings: 2 μM AO2
Method: as §1

[3] = molecular target: T2, thrombin (cleavage of fibrinogen) (Homo sapiens, UniProt P00734); experiment: Fibrinogen turbidity assay; format: biochemical; settings: 2 μM AO2 added at 10 min to thrombin-fibrinogen-HD22-7A-DAB (50 nM)
T2 construct: Human alpha thrombin, human factor Xa, and human fibrinogen were purchased from Haematologic Technologies Inc; purchased Haematologic Technologies Inc
Method: To test the kinetics of antidote reversal, 1 μL AO2 (final concentration 2 μM) was added to the reaction 10 min after fibrinogen addition. The maximum absorption over the period of assay in the absence and presence of different inhibitors were determined. The time to reach 10%, 50%, and 90% maximum absorption increase from the start point were calculated and recorded as lag time, t50, and t90, respectively, for each inhibitor to evaluate the kinetic of fibrinogen activation. Each experiment was performed in triplicates to determine the mean and standard deviation of each parameter.

normal human plasma [4] = experiment: Prothrombin time (PT) plasma coagulation assay; settings: 2 μM AO2
Method: as §1

thrombin = thrombin (Homo sapiens, UniProt P00734); settings: read-out: inhibition constant (Ki), thrombin; cited from earlier work

For “11F7t-20A-APX (GAGAGCCCCAGCGAGAUAAUACUUGGCCCCGCUCUUU; 5' APX-C6H12-2'OMeA linker conjugate; modified_base 37 OTHER; Inverted dT)”, the IC50 (human factor Xa) was 0.17 nM and the “effect on aPTT, result in words” value (normal human plasma [1]; normal human plasma, comparison with DAB at 500 nM) was “significantly higher anticoagulant activity than free aptamer, small molecule inhibitor, and their equimolar mixture”.
For “11F7t-20A-DAB (GAGAGCCCCAGCGAGAUAAUACUUGGCCCCGCUCUUU; 5' DAB-C6H12-2'OMeA linker conjugate; modified_base 37 OTHER; Inverted dT)”, the IC50 (human factor Xa) was 0.18 nM, the “factor Xa inhibition, result in words” value (human factor Xa) was “significantly higher inhibitory effect of thrombin than DAB, 11F7t, or their equimolar mixture” and the “enhancement in the IC50 for factor Xa when DAB is conjugated to 11F7t” value (human factor Xa; versus free DAB) was greater than 2500 fold. For the same compound, the “thrombin inhibition, result in words” value (Human alpha thrombin) was “no different from DAB alone”.
In the case of “11F7t: factor Xa RNA aptamer, SEQ ID NO: 9 (GAGAGCCCCAGCGAGAUAAUACUUGGCCCCGCUCUUU; modified_base 37 OTHER; Inverted dT) [reference compound]”, the “factor Xa inhibition, result in words” value (human factor Xa) is given as “showed no inhibition” and the Kd (factor Xa; free aptamer) is given as 1.26 nM.
With `COc1ccc(-n2nc(C(=O)O)c3c2C(=O)N(c2ccc(N4CCCCC4=O)cc2)CC3)cc1` [APX, apixaban-COOH, reference compound] the IC50 (human factor Xa) was 5.5 nM.
With “AO2: antidote oligonucleotide complementary to entire HD22 aptamer and linker, SEQ ID NO: 4 (AGTCACCCCAACCTGCCCTACCACGGACTTTTTTTT; antidote oligonucleotide complementary to aptamer and linker, chemistry not given here, further chemistry not given here)” the “antidote reversal of HD22-7A-DAB in TT” value (normal human plasma [2]) was “largely reversed within 5 minutes”, the “antidote reversal of HD22-7A-DAB in aPTT” value (normal human plasma [1]; 2 μM AO2) was “efficiently reversed” and the “reduction of the potency of HD22-7A-DAB by antidote” value (Human alpha thrombin; antidote oligonucleotide added to HD22-7A-DAB, FIG. 1c) was “more than 10,000 fold”. For the same compound, the “antidote reversal of thrombin inhibition, result in words” value (Human alpha thrombin) was “efficiently reversed; also recorded: reduces the potency of the EXACT conjugate to an extent that is significantly lower than free DAB”, the “lag time after antidote addition” value [3] was 9.8 min and the “time over which absorbance increased and saturated after antidote” value [3] was 20.7 min. The “antidote reversal of HD22-7A-DAB in PT” value (normal human plasma [4]) was “efficiently reversed”.
For “AO5.4: antidote for 11F7t-20A-DAB pairing with entire linker and part of aptamer, SEQ ID NO: 11 (TATTATCTCGCTGGGGCTCTCTTTTTTTTTTTTTTTTTTTT; antidote oligonucleotide, chemistry not given here, further chemistry not given here)”, the “antidote reversal of factor Xa inhibition by 11F7t-20A-DAB, result in words” value (human factor Xa; listed as A05.4) was “efficiently reversed” and the “antidote reversal of factor Xa inhibition by 11F7t-20A-DAB, result in words” value (human factor Xa; listed as AG5.4) was “effectively reverses the inhibition”.
For “HD1-12A-DAB (GGTTGGTGTGGTTGG; 3' DAB conjugate via C6H12O2 linker, further chemistry not given here)”, the “thrombin inhibition, result in words” value (Human alpha thrombin) was “significantly higher inhibitory effect to thrombin compared with DAB, HD1, or their equimolar mixture” and the “antidote reversal of thrombin inhibition, result in words” value (Human alpha thrombin) was “efficiently reversed by specific antidotes; also recorded: efficiently reversed by an antisense oligo”.
For “TAP: Tick anticoagulant peptide secreted by Ornithodoros moubata, factor Xa inhibitor (YNRLCIKPRDWIDECDSNEGGERAYFRNGKGGCDSFWICPEDHTGADYYSSYRDCFNACI; UniProt P17726 1-60, looked up)”, the Ki (factor Xa; read-out: Ki, free FXa) is listed as 0.18 nM.
In the case of hirudin, the Ki (thrombin) is listed as 0.01 nM.
